Patent US20090270401A1, “USE OF A DIHYDROIMIDAZOPYRAZOINE DERIVATIVE FOR TREATING OR PREVENTING PAIN” (Societe de Conseils de Recherches et D'Applications …, priority 2004, published 2009)

Experiments:
Assay type in all cases: in vivo
[1] = system: neuropathy induced by chronic constriction injury on the rat's paw; experiment: Model of neuropathy induced by sciatic nerve lesion (chronic constriction injury), Randall-Selitto test
Method: The activity of compound (I) or its salt according to the invention was evaluated in vivo on a model of neuropathy induced by chronic constriction injury on the rat's paw.
Male Sprague Dawley (Charles River) rats weighing approximately 200 g are housed for 6 days under animal room conditions. Before the start of the experiment (day zero) the pain threshold (or nociceptive threshold) was evaluated by measuring the withdrawal of the rat's paw caused by a mechanical stimulus (initial pressure 210 g/mm^2) applied using an analgesy meter (Randall-Selitto test). This threshold is the pain base threshold. Then, also on day zero, the rats are rendered neuropathic by chronic constriction injury according to the Bennett and Xies (1988) method: 4 ligatures spaced at approximately 2 mm (monocryl suture; 5.0) are carried out on the sciatic nerve of the rat's right paw, above the trifurcation. This operation is carried out under general anaesthetic using isoflurane. […] On day 14 after the operation, the pain threshold was re-evaluated. […] The readings are taken at the following times: 0.5 hours 2.5 hours and 4 hours after injection of compound (I). […]
(§1) This effectiveness is statistically determined by a variance analysis test (one route) and/or a Dunnett's test (two routes).
The effective dose (ED50) was determined. […]

[2] = system: carrageenin-induced inflammatory hyperalgesia in a rat's paw; experiment: Model of carrageenin-induced inflammatory hyperalgesia (Randall-Selitto test)
Method: The activity of compound (I) or its salt according to the invention has been evaluated in vivo on a model of carrageenin-induced inflammatory hyperalgesia in a rat's paw.
Male Sprague Dawley (Charles River) rats weighing approximately 200 g are housed for 5 to 8 days under animal room conditions and fasted on grids for 18 hours before and during the experiment. 4 groups are constituted by at least 6 animals. The products are administered by intravenous route (i.v., 1 ml/kg) 2 hours 30 minutes after the injection of carrageenin. Carrageenin at a concentration of 2 mg/0.1 ml was injected by sub-plantar route in the right rear paw of the rats (0.1 ml was injected per animal). The pain threshold (or nociceptive threshold) was evaluated by measuring the withdrawal of the rat's paw caused by a mechanical stimulus of increasing pressure (initial pressure 210 g/mm^2) applied using an analgesy meter (Randall-Selitto test). The measurements were taken just before the injection of carrageenin (t=−2 hours 30 minutes) and then at time 0.5 hours, 2 hours 30 minutes and 4 hours after injection of the products to be tested, which was carried out at t=0.
as §1
The effective dose (ED50) was determined. By ED50, is meant the dose which reduces by half the pain induced in the model tested.

[3] = system: neuropathy induced by administration of an anti-cancer agent (paclitaxel (taxol)), on a rat's paw; experiment: Model of neuropathy induced by administration of an anti-cancer agent (paclitaxel), Randall-Selitto test; details: significantly increased
Method: The activity of compound (I) or its salt according to the invention was evaluated in vivo on a model of neuropathy induced by administration of an anti-cancer agent (paclitaxel (taxol)), on a rat's paw.
Male Sprague Dawley (Charles River) rats weighing approximately 200 g are housed for 6 days under animal room conditions. 3 groups are constituted by at least 10 animals.
The neuropathy is induced by intra-peritoneal injections (i.p.) of 2 mg/kg of paclitaxel (extract of Taxus Yannanensis) on days D0, D2, D4 and D7.
Before the first injection, the rats are numbered and weighed and nociception is evaluated after a mechanical stimulus of increasing pressure: induction of an initial pressure (210 g/m^2) on the rats' two rear paws carried out using an analgesy meter according to the Randall and Selitto method. These measurements allow the base values to be defined before development of the neuropathy (D0). […]
On the day of the experiment, the rats are weighed, nociception is measured and the animals which have not developed the neuropathy on this day (reduction of nociception in comparison with the readings on D0) are excluded from the study. The product being tested is administered and nociception is measured at different times after its administration.

[4] = Rattus norvegicus, iv, at time 0.5 hours, read-out: ED50 (dose which reduces by half the pain induced)

SMILES: N[C@@H](CSSC[C@H](N)C(=O)N1CCn2cc(-c3ccccc3)nc2[C@@H]1CC1CCCCC1)C(=O)N1CCn2cc(-c3ccccc3)nc2[C@@H]1CC1CCCCC1 [Compound (I), (1R)-1-[({(2R)-2-amino-3-[(8S)-8-(cyclohexylmethyl)-2-phenyl-5,6-dihydroimidazo[1,2-a]pyrazin-7(8H)-yl]-3-oxopropyl}dithio)methyl]-2-[(8S)-8-(cyclohexylmethyl)-2-phenyl-5,6-dihydroimidazo[1,2-a]pyrazin-7(8H)-yl]-2-oxoethylamine]
- pain threshold following a mechanical stimulus applied to the rats' paws ([1]; 3 mg/kg i.v., time 0.5 hours, day 14 after operation, control 200 g/mm^2, significantly increased): approximately 320 g/mm^2
- ED50 [1, 4]: 2.5 mg/kg
- pain threshold following a mechanical stimulus applied to the rats' paws ([2]; 1 mg/kg i.v., time 0.5 hours, control 240 g/mm^2, significantly increased): approximately 400 g/mm^2
- ED50 [2, 4]: 0.42 mg/kg
- pain threshold following a mechanical stimulus applied on the rats' paws ([3]; 3 mg/kg i.v., time 0.5 hours, paclitaxel alone 250 g/mm^2): approximately 370 g/mm^2
- pain threshold following a mechanical stimulus applied to the rats' paws ([3]; 100 mg/kg p.o., time 1 hour, paclitaxel alone 240 g/mm^2): approximately 400 g/mm^2
